According to PubChem BioAssay AID248 (DTP/NCI, 2004):
Toxic doses and inconclusive results are not listed. Cut-off read from the data, not from the text of the source: active = T/C of 150% or more; inactive = T/C below 125%.

Tested on: L1210 leukemia ip in BDF1 mice, survival T/C
Experiment: NCI In Vivo Anticancer Drug Screen. Data for tumor model L1210 Leukemia (intraperitoneal) in B6D2F1 (BDF1) mice
Settings: endpoint: mean survival time, higher = longer survival
How it was run: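 Antitumor effect is assessed in tumor-bearing animals. Survival in the compound arm is compared with a vehicle-dosed control arm and expressed as their quotient.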

[1] = dose: 100.0 mg/kg/injection, schedule: Q01DX009 (ip), vehicle: Klucel (hydroxypropylcellulose) (HPC)
[2] = dose: 100.0 mg/kg/injection, schedule: Q04DX003 (ip), vehicle: Klucel (hydroxypropylcellulose) (HPC)
[3] = dose: 200.0 mg/kg/injection, schedule: Q01DX009 (ip), vehicle: Klucel (hydroxypropylcellulose) (HPC)
[4] = dose: 200.0 mg/kg/injection, schedule: Q04DX003 (ip), vehicle: Klucel (hydroxypropylcellulose) (HPC)
[5] = dose: 400.0 mg/kg/injection, schedule: Q01DX009 (ip), vehicle: Klucel (hydroxypropylcellulose) (HPC)
[6] = dose: 400.0 mg/kg/injection, schedule: Q04DX003 (ip), vehicle: Klucel (hydroxypropylcellulose) (HPC)
[7] = dose: 100.0 mg/kg/injection, schedule: Q01DX001 (ip), vehicle: saline
[8] = dose: 200.0 mg/kg/injection, schedule: Q01DX001 (ip), vehicle: saline
[9] = dose: 400.0 mg/kg/injection, schedule: Q01DX001 (ip), vehicle: saline
[10] = dose: 50.0 mg/kg/injection, schedule: Q01DX001 (ip), vehicle: saline
[11] = dose: 100.0 mg/kg/injection, schedule: Q01DX001 (ip), vehicle: Klucel (hydroxypropylcellulose) (HPC)
[12] = dose: 100.0 mg/kg/injection, schedule: Q01DX009 (ip), vehicle: saline with Tween-80
[13] = dose: 100.0 mg/kg/injection, schedule: Q04DX003 (ip), vehicle: saline with Tween-80
[14] = dose: 200.0 mg/kg/injection, schedule: Q01DX001 (ip), vehicle: Klucel (hydroxypropylcellulose) (HPC)
[15] = dose: 200.0 mg/kg/injection, schedule: Q01DX009 (ip), vehicle: saline with Tween-80
[16] = dose: 200.0 mg/kg/injection, schedule: Q04DX003 (ip), vehicle: saline with Tween-80
[17] = dose: 400.0 mg/kg/injection, schedule: Q04DX003 (ip), vehicle: saline with Tween-80

Measured: T/C

CCCCCCCCOC(=O)CC
inactive: dose: 100.0 mg/kg/injection, schedule: Q04DX002 (ip), vehicle: saline 111 % of control | dose: 200.0 mg/kg/injection, schedule: Q04DX002 (ip), vehicle: saline 107 % of control | dose: 400.0 mg/kg/injection, schedule: Q04DX002 (ip), vehicle: saline 100 % of control

C[n+]1cc2ccccc2c2ccccc21
inactive: dose: 6.25 mg/kg/injection, schedule: Q01DX009 (ip), vehicle: water 104 % of control | dose: 12.5 mg/kg/injection, schedule: Q01DX009 (ip), vehicle: saline 92 % of control | dose: 12.5 mg/kg/injection, schedule: Q01DX009 (ip), vehicle: water 120 % of control | dose: 12.5 mg/kg/injection, schedule: Q04DX003 (ip), vehicle: saline 101 % of control | dose: 12.5 mg/kg/injection, schedule: Q04DX003 (ip), vehicle: water 98 % of control | dose: 25.0 mg/kg/injection, schedule: Q01DX009 (ip), vehicle: saline 112 % of control | dose: 25.0 mg/kg/injection, schedule: Q01DX009 (ip), vehicle: water 115 % of control | dose: 25.0 mg/kg/injection, schedule: Q04DX003 (ip), vehicle: saline 107 % of control | dose: 25.0 mg/kg/injection, schedule: Q04DX003 (ip), vehicle: water 107 % of control | dose: 50.0 mg/kg/injection, schedule: Q01DX009 (ip), vehicle: saline 95 % of control | dose: 50.0 mg/kg/injection, schedule: Q01DX009 (ip), vehicle: water 93 % of control | dose: 50.0 mg/kg/injection, schedule: Q04DX003 (ip), vehicle: saline 107 % of control

O=c1[nH]c2c(cc1Br)C(Br)C(Br)C=C2 (configuration not stated)
inactive: dose: 100.0 mg/kg/injection, schedule: Q01DX001 (ip), vehicle: other 105 % of control | dose: 200.0 mg/kg/injection, schedule: Q01DX001 (ip), vehicle: other 108 % of control

c1ccc(CC2(Cc3ccccc3)N=C(c3ccccc3)C(c3ccccc3)=N2)cc1
inactive: [1] 103 % of control | [2] 102 % of control | [3] 97 % of control | [4] 103 % of control | [5] 98 % of control | [6] 97 % of control

NCCc1nc2ccccc2[nH]1
inactive: dose: 15.0 mg/kg/injection, schedule: Q01DX Z (ip), vehicle: saline 93 % of control | dose: 30.0 mg/kg/injection, schedule: Q01DX Z (ip), vehicle: saline 98 % of control | dose: 60.0 mg/kg/injection, schedule: Q01DX Z (ip), vehicle: saline 97 % of control | dose: 120.0 mg/kg/injection, schedule: Q01DX Z (ip), vehicle: saline 95 % of control | dose: 240.0 mg/kg/injection, schedule: Q01DX Z (ip), vehicle: saline 103 % of control | dose: 480.0 mg/kg/injection, schedule: Q01DX Z (ip), vehicle: saline 108 % of control

O=C(O)CNCCN1CC(=O)NC1=S
inactive: dose: 100.0 mg/kg/injection, schedule: Q04DX002 (ip), vehicle: saline with Tween-80 107 % of control | dose: 200.0 mg/kg/injection, schedule: Q04DX002 (ip), vehicle: saline with Tween-80 92 % of control | dose: 400.0 mg/kg/injection, schedule: Q04DX002 (ip), vehicle: saline with Tween-80 90 % of control

CC1(C)OC2C(CNS(C)(=O)=O)OC(n3cnc4c(N)ncnc43)C2O1 (configuration not stated)
inactive: [7] 102 % of control | [8] 98 % of control | [9] 101 % of control

O=C1C2C(C(=O)N1c1ccccc1)N2CCO (configuration not stated)
inactive: [1] 107 % of control | [2] 113 % of control | [3] 103 % of control | [4] 108 % of control | [5] 97 % of control | [6] 113 % of control

O=C1CCCC(=O)NNC(=O)NCCCCCCNC(=O)NN1
inactive: [10] 102 % of control | [7] 87 % of control | [8] 87 % of control | [9] 96 % of control

Nc1ccc2nc(N)nc(N)c2c1
inactive: dose: 37.5 mg/kg/injection, schedule: Q01DX009 (ip), vehicle: Klucel (hydroxypropylcellulose) (HPC) 121 % of control | dose: 65.0 mg/kg/injection, schedule: Q04DX003 (ip), vehicle: Klucel (hydroxypropylcellulose) (HPC) 106 % of control | dose: 75.0 mg/kg/injection, schedule: Q01DX009 (ip), vehicle: Klucel (hydroxypropylcellulose) (HPC) 107 % of control | [2] 112 % of control | dose: 150.0 mg/kg/injection, schedule: Q04DX003 (ip), vehicle: Klucel (hydroxypropylcellulose) (HPC) 112 % of control

COc1c(NC(=O)Nc2ccc(F)c([N+](=O)[O-])c2)cccc1[N+](=O)[O-]
inactive: [1] 93 % of control | [3] 101 % of control | [5] 97 % of control

CCOC(=O)Nc1cc(NCC(O)CN(C)c2ccc(OC)cc2)c([N+](=O)[O-])c(N)n1 (configuration not stated)
inactive: dose: 100.0 mg/kg/injection, schedule: Q01DX001 (ip), vehicle: saline with Tween-80 95 % of control | dose: 200.0 mg/kg/injection, schedule: Q01DX001 (ip), vehicle: saline with Tween-80 93 % of control | dose: 400.0 mg/kg/injection, schedule: Q01DX001 (ip), vehicle: saline with Tween-80 88 % of control

NC(=O)/C(=C\c1ccc(N=Nc2ccc(/C=C(\C(N)=O)c3cccc4ccccc34)cc2)cc1)c1cccc2ccccc12
inactive: [2] 93 % of control | [4] 99 % of control | [6] 89 % of control

CC1C(C)(C)P(=O)(n2nnc3ccccc32)C1(C)C (configuration not stated)
inactive: dose: 100.0 mg/kg/injection, schedule: Q04DX003 (ip), vehicle: saline 105 % of control | dose: 200.0 mg/kg/injection, schedule: Q04DX003 (ip), vehicle: saline 97 % of control | dose: 400.0 mg/kg/injection, schedule: Q04DX003 (ip), vehicle: saline 94 % of control

Nc1ccccc1C(=O)c1ccccc1
inactive: [11] 94 % of control | [12] 90 % of control | [2] 98 % of control | [13] 93 % of control | [14] 93 % of control | [15] 95 % of control | [4] 98 % of control | [16] 95 % of control | [17] 95 % of control

Cc1ccc(C(=O)/C=C(\C(=O)c2ccccc2)c2ccccc2)cc1C
inactive: dose: 100.0 mg/kg/injection, schedule: Q04DX002 (ip), vehicle: Klucel (hydroxypropylcellulose) (HPC) 97 % of control | dose: 200.0 mg/kg/injection, schedule: Q04DX002 (ip), vehicle: Klucel (hydroxypropylcellulose) (HPC) 93 % of control | dose: 400.0 mg/kg/injection, schedule: Q04DX002 (ip), vehicle: Klucel (hydroxypropylcellulose) (HPC) 97 % of control

Cc1ccc(C2=NN(c3ccccc3)C(c3ccccc3)C2NC2CCCCC2)cc1 (configuration not stated)
inactive: dose: 100.0 mg/kg/injection, schedule: Q01DX009 (ip), vehicle: acetone 86 % of control | dose: 400.0 mg/kg/injection, schedule: Q01DX009 (ip), vehicle: acetone 100 % of control

CC(=O)Nc1ccc(Cc2[nH]c(=O)[nH]c(=O)c2Br)cc1
inactive: [11] 93 % of control | [14] 93 % of control

COC(OC)c1nc(SC)[nH]c(=O)c1C[N+](C)(C)C
inactive: [12] 102 % of control | [13] 96 % of control | [15] 92 % of control | [16] 94 % of control | [17] 91 % of control

O=C(NOCc1cscn1)Nc1ccccc1
inactive: [7] 101 % of control | [8] 104 % of control | [9] 104 % of control

NC1CC[N-]CC1.NC1CC[N-]CC1.NC1CC[N-]CC1.NC1CC[N-]CC1.[Cl][Rh][Cl]
inactive: dose: 6.25 mg/kg/injection, schedule: Q01DX009 (ip), vehicle: saline with Tween-80 100 % of control | dose: 12.5 mg/kg/injection, schedule: Q01DX009 (ip), vehicle: saline with Tween-80 96 % of control | dose: 25.0 mg/kg/injection, schedule: Q01DX009 (ip), vehicle: saline with Tween-80 104 % of control

Cc1cccc(C)c1CNC(=O)NCCCl
inactive: [2] 98 % of control | [4] 95 % of control | [6] 104 % of control

C[N+](C)(C)c1ccc(N=Nc2ccccn2)cc1
inactive: [10] 113 % of control

O=C(O)/C=C\C(=O)Nc1ccccc1Cl
inactive: [1] 102 % of control | [3] 100 % of control | [5] 97 % of control

CCCCCCCCc1cc(Cl)c(O)c(Cl)c1
inactive: dose: 50.0 mg/kg/injection, schedule: Q01DX009 (ip), vehicle: Klucel (hydroxypropylcellulose) (HPC) 105 % of control | [1] 105 % of control | [3] 93 % of control

COc1c2occc2c(OC)c2c(=O)cc(/C=C/c3ccc4ccccc4n3)oc12
inactive: [7] 95 % of control | [8] 95 % of control | [9] 96 % of control
